Data from patent US20170045513A1, “METHODS OF DIAGNOSING CELIAC DISEASE USING IP-10” (ImmusanT, Inc., priority 2014, published 2017).
Non-standard residues stand in square brackets, D forms with d. pGlu = O=C1CC[C@@H](C(=O)O)N1

Key:
Format in all cases: cell-based, human
gluten-reactive T cells [1] = experiment: 96-well plate whole blood cytokine release, IFNγ by MAGPIX multiplex bead assay; conditions: for Percent of maximal response to individual gluten peptides, IFNg: after oral gluten challenge; for IFNγ WB MAGPIX % max Mean: n = 8, blood after oral gluten challenge, individual peptides 5 μM (Peptide 2* of P14, Pepscan: 10 μg/mL (5.45 μM))
gluten-reactive T cells [2] = experiment: 96-well plate whole blood cytokine release, IP-10 by MAGPIX multiplex bead assay; conditions: for Percent of maximal response to individual gluten peptides, IP-10: after oral gluten challenge; for IP-10 WB MAGPIX % max Mean: n = 10, blood after oral gluten challenge, individual peptides 5 μM (Peptide 2* of P14, Pepscan: 10 μg/mL (5.45 μM))
gluten-reactive T cells [3] = experiment: Cytokine release assays taken together (IFNγ ELISpot, whole blood IFNγ and IP-10, in-tube IFNγ ELISA)
Description: Gluten peptide solutions for addition to whole blood were arranged according to standardized templates in sterile 96-well U-bottom plates (30 μL/well). Plates were sealed with adhesive ELISA plate cover slips before the plastic lid was replaced and being frozen at −80° C. Whole blood assay (WBA) “medium” (1% DMSO in 90% PBS and 9% normal saline), mitogen (PHA-L, Sigma-Aldrich #L2769; St Louis Mo.) 100 μg/ml in WBA medium, and CEF diluted to 10 μg/ml in PBS with a final concentration of 1% DMSO were frozen separately in sterile cryovials. 96-well plates and cryovials with frozen incubation solutions were shipped on dry ice to the clinical site where blood was collected and incubations performed. Solutions were thawed at room temperature for 10 min just before being added to whole blood. 96-well plates were thawed while being centrifuged at 300 g to avoid surface condensation. A multi-channel pipette was used to efficiently transfer 25 μL of peptide solutions from the original 96-well plate to corresponding wells in a fresh sterile 96-well U-bottom plate. Once incubation solutions had been added, 225 μL of whole blood was added to each well and the plate transferred to incubate for 24 h at 37° C. 5% CO2. […] Individual peptides were incubated at a final assay concentration of 51.1M. Final concentrations of individual peptides assessed in P3 was 0.05-50 μg/mL, and in P14 and P13 pools 0.025-25 μM. The P71 pool was tested at between 0.005-10 pg/mL, the highest tested concentration being the maximal possible not exceeding 0.1% DMSO. Peptide pools, mitogen, and medium only were assessed in triplicate wells, and on Day-6 individual peptides were assessed in duplicate wells. Incubations were terminated after 24 h, and 96-well plates centrifuged at 300 g for 10 min. A total of approximately 90 to 120 μL of plasma was removed from each well taking care to avoid red cell contamination, and transferred into corresponding wells of two further 96-well plates (one with 30 μL/well and the residual in the second plate). Plasmas were frozen at −80° C. and later shipped on dry ice to the central lab where IP-10 and IFNγ multiplex bead assays were performed according to manufacturer's instructions using 25 μL plasma per well (Milliplex® MAP Human Cytokine/Chemokine Magnetic Bead Panel #HCYTOMAG-60k-02; EMD Millipore Corp., Billerica, Mass. 01821) and analysed with the Luminex® MAGPIX® System xPONENT® software (Luminex Corporation, Austin Tex. 78727). Plasma cytokine levels for each assay condition were expressed as the mean analyte concentration of each of the three replicate incubations. Laboratory staff were unaware of the arrangement of peptide solutions incubated with during assay setup and plate counting.
Aliquots of PBS, P3 peptides diluted in PBS (final concentration in blood 3× 50 or CEF to a final concentration 1 μg/mL were prepared in sterile cryovials (0.11 mL/vial) and stored frozen (−80° C.) until immediately before use. P3, CEF and two PBS aliquots were drawn up in separate sterile 0.3 mL insulin syringes with attached 29G×½″ needle (Terumo, SS*30M2913; Elkton Md. 21921). P3, CEF and one PBS aliquot was injected through the stoppers of three separate QuantiFERON® NIL tubes already containing 1 mL blood, and one aliquot of PBS was injected into a QuantiFERON® MITOGEN tube already containing 1 mL blood. All four tubes containing blood and incubation solution were gently inverted ten-times and transferred to incubate at 37° C. 5% CO2. After for 24 h, tubes were centrifuged 300 g 10 min. Plasma was separated and equal volumes placed in two 1.5 mL cryovials. Frozen plasmas were transferred to the central lab where IFNγ levels were measured in triplicate 50 μL samples by ELISA (MABtech Human IFN-γ ELISA development kit HRP, 3420-1H-6; capture mAb 1-D1K). […]

[4] = blood collected after oral gluten challenge

Row | Substance | Percent of maximal response to individual gluten peptides, IFNg (gluten-reactive T cells [1]; Subject 2, Max. 116 pg/mL) | Percent of maximal response to individual gluten peptides, IFNg (gluten-reactive T cells [1]; Subject 3, Max. 799 pg/mL) | Percent of maximal response to individual gluten peptides, IFNg (gluten-reactive T cells [1]; Subject 4, Max. 136 pg/mL) | Percent of maximal response to individual gluten peptides, IFNg (gluten-reactive T cells [1]; Subject 6, Max. 72 pg/mL) | Percent of maximal response to individual gluten peptides, IFNg (gluten-reactive T cells [1]; Subject 7, Max. 17 pg/mL) | Percent of maximal response to individual gluten peptides, IFNg (gluten-reactive T cells [1]; Subject 8, Max. 47 pg/mL) | Percent of maximal response to individual gluten peptides, IFNg (gluten-reactive T cells [1]; Subject 9, Max. 67 pg/mL) | Percent of maximal response to individual gluten peptides, IFNg (gluten-reactive T cells [1]; Subject 10, Max. 229 pg/mL) | IFNγ WB MAGPIX % max Mean (gluten-reactive T cells [1]) [% max] | Percent of maximal response to individual gluten peptides, IP-10 (gluten-reactive T cells [2]; Subject 1, Max. 2331 pg/mL) | Percent of maximal response to individual gluten peptides, IP-10 (gluten-reactive T cells [2]; Subject 2, Max. 3646 pg/mL) | Percent of maximal response to individual gluten peptides, IP-10 (gluten-reactive T cells [2]; Subject 3, Max. 9492 pg/mL) | Percent of maximal response to individual gluten peptides, IP-10 (gluten-reactive T cells [2]; Subject 4, Max. 9463 pg/mL) | Percent of maximal response to individual gluten peptides, IP-10 (gluten-reactive T cells [2]; Subject 5, Max. 9336 pg/mL) | Percent of maximal response to individual gluten peptides, IP-10 (gluten-reactive T cells [2]; Subject 6, Max. 5863 pg/mL) | Percent of maximal response to individual gluten peptides, IP-10 (gluten-reactive T cells [2]; Subject 7, Max. 2330 pg/mL) | Percent of maximal response to individual gluten peptides, IP-10 (gluten-reactive T cells [2]; Subject 8, Max. 4019 pg/mL) | Percent of maximal response to individual gluten peptides, IP-10 (gluten-reactive T cells [2]; Subject 9, Max. 8349 pg/mL) | Percent of maximal response to individual gluten peptides, IP-10 (gluten-reactive T cells [2]; Subject 10, Max. 8922 pg/mL) | IP-10 WB MAGPIX % max Mean (gluten-reactive T cells [2]) [% max] | other results
1 | (pE)LQPFPQPELPYPQPQ-amide ([pGlu]LQPFPQPELPYPQPQ-NH2; SMILES CC(C)C[C@H](NC(=O)[C@@H]1CCC(=O)N1)C(=O)N[C@@H](CCC(N)=O)C(=O)N1CCC[C@H]1C(=O)N[C@@H](Cc1ccccc1)C(=O)N1CCC[C@H]1C(=O)N[C@@H](CCC(N)=O)C(=O)N1CCC[C@H]1C(=O)N[C@@H](CCC(=O)O)C(=O)N[C@@H](CC(C)C)C(=O)N1CCC[C@H]1C(=O)N[C@@H](Cc1ccc(O)cc1)C(=O)N1CCC[C@H]1C(=O)N[C@@H](CCC(N)=O)C(=O)N1CCC[C@H]1C(=O)N[C@@H](CCC(N)=O)C(N)=O) [Peptide 1] | 100 % of max | 14 % of max | 26 % of max | 25 % of max | 43 % of max | 6 % of max | 43 % of max | 7 % of max | 33 | 100 % of max | 100 % of max | ≥ 100 % of max | 96 % of max | 14 % of max | 23 % of max | 39 % of max | 3 % of max | 75 % of max | 34 % of max | 58 | activity relative to Peptide 14 in the cytokine release assays (gluten-reactive T cells [3]; [4]): no more than two-thirds as active as Peptide 14; rank of activity among individual gluten peptides (gluten-reactive T cells [3]; [4]): the most active of this group of related peptides
2 | (pE)PEQPEQPFPEQPQQ-amide ([pGlu]PEQPEQPFPEQPQQ-NH2; SMILES NC(=O)CC[C@H](NC(=O)[C@H](CCC(N)=O)NC(=O)[C@@H]1CCCN1C(=O)[C@H](CCC(N)=O)NC(=O)[C@H](CCC(=O)O)NC(=O)[C@@H]1CCCN1C(=O)[C@H](Cc1ccccc1)NC(=O)[C@@H]1CCCN1C(=O)[C@H](CCC(N)=O)NC(=O)[C@H](CCC(=O)O)NC(=O)[C@@H]1CCCN1C(=O)[C@H](CCC(N)=O)NC(=O)[C@H](CCC(=O)O)NC(=O)[C@@H]1CCCN1C(=O)[C@@H]1CCC(=O)N1)C(N)=O) [Peptide 11] | 0 % of max | 0 % of max | 0 % of max | 0 % of max | 0 % of max | 0 % of max | 0 % of max | 0 % of max | 0 | 0 % of max | 0 % of max | 6 % of max | 2 % of max | 0 % of max | 0 % of max | 0 % of max | 0 % of max | 0 % of max | 0 % of max | 1 | cytokine release / immunogenicity of individual peptide (gluten-reactive T cells [3]; HLA-DQ2.5+ celiac disease subjects after gluten challenge): weak or not distinguishable from medium alone
3 | (pE)PEQPFPEQPIPEQPQPYP-amide ([pGlu]PEQPFPEQPIPEQPQPYP-NH2; SMILES CC[C@H](C)[C@H](NC(=O)[C@@H]1CCCN1C(=O)[C@H](CCC(N)=O)NC(=O)[C@H](CCC(=O)O)NC(=O)[C@@H]1CCCN1C(=O)[C@H](Cc1ccccc1)NC(=O)[C@@H]1CCCN1C(=O)[C@H](CCC(N)=O)NC(=O)[C@H](CCC(=O)O)NC(=O)[C@@H]1CCCN1C(=O)[C@@H]1CCC(=O)N1)C(=O)N1CCC[C@H]1C(=O)N[C@@H](CCC(=O)O)C(=O)N[C@@H](CCC(N)=O)C(=O)N1CCC[C@H]1C(=O)N[C@@H](CCC(N)=O)C(=O)N1CCC[C@H]1C(=O)N[C@@H](Cc1ccc(O)cc1)C(=O)N1CCC[C@H]1C(N)=O) [Peptide 14] | 53 % of max | 100 % of max | 100 % of max | 100 % of max | 99 % of max | 100 % of max | 98 % of max | 100 % of max | 94 | 2 % of max | 31 % of max | ≥ 100 % of max | ≥ 100 % of max | 100 % of max | 100 % of max | 100 % of max | 91 % of max | ≥ 100 % of max | ≥ 100 % of max | 82 | rank of activity among individual gluten peptides (gluten-reactive T cells [3]; [4]): most active
